Reference: ChEMBL document CHEMBL3112450, “Synthesis and in vitro antitumor evaluation of primary amine substituted quinazoline linked benzimidazole” (Bioorg Med Chem Lett, 2014)

Experiments:
Format in all cases: functional
MDA-MB-468 = experiment: Cytotoxicity against human MDA-MB-468 cells assessed as cell growth at 10^-5 M after 48 hrs by SRB assay; details: MDA-MB-468, 48 h, read-out: Activity
BT-549 = experiment: Cytotoxicity against human BT549 cells assessed as cell growth at 10^-5 M after 48 hrs by SRB assay; details: BT-549, 48 h, read-out: Activity
[1] = Cytotoxicity against human Hs578T cells assessed as cell growth at 10^-5 M after 48 hrs by SRB assay; details: Hs-578T, read-out: Activity
MDA-MB-231 = experiment: Cytotoxicity against human MDA-MB-231 cells assessed as cell growth at 10^-5 M after 48 hrs by SRB assay; details: MDA-MB-231, 48 h, read-out: Activity
MCF7 = experiment: Cytotoxicity against human MCF7 cells assessed as cell growth at 10^-5 M after 48 hrs by SRB assay; details: MCF7, 48 h, read-out: Activity
DU-145 = experiment: Cytotoxicity against human DU145 cells assessed as cell growth at 10^-5 M after 48 hrs by SRB assay; details: DU-145, 48 h, read-out: Activity
TK-10 = experiment: Cytotoxicity against human TK10 cells assessed as cell growth at 10^-5 M after 48 hrs by SRB assay; details: TK-10, 48 h, read-out: Activity
RXF 393 = experiment: Cytotoxicity against human RXF393 cells assessed as cell growth at 10^-5 M after 48 hrs by SRB assay; details: RXF 393, 48 h, read-out: Activity
SN12C = experiment: Cytotoxicity against human SN12C cells assessed as cell growth at 10^-5 M after 48 hrs by SRB assay; details: read-out: Activity
ACHN = experiment: Cytotoxicity against human ACHN cells assessed as cell growth at 10^-5 M after 48 hrs by SRB assay; details: read-out: Activity
A498 = experiment: Cytotoxicity against human A498 cells assessed as cell growth at 10^-5 M after 48 hrs by SRB assay; details: A498, 48 h, read-out: Activity
786-0 = experiment: Cytotoxicity against human 786-0 cells assessed as cell growth at 10^-5 M after 48 hrs by SRB assay; details: 786-0, 48 h, read-out: Activity
[2] = Cytotoxicity against human NCI-ADR-RES cells assessed as cell growth at 10^-5 M after 48 hrs by SRB assay; details: read-out: Activity
OVCAR-3 = experiment: Cytotoxicity against human OVCAR3 cells assessed as cell growth at 10^-5 M after 48 hrs by SRB assay; details: OVCAR-3, 48 h, read-out: Activity
[3] = Cytotoxicity against human OVCAR4 cells assessed as cell growth at 10^-5 M after 48 hrs by SRB assay; details: OVCAR-4, 48 h, read-out: Activity
[4] = Cytotoxicity against human UACC257 cells assessed as cell growth at 10^-5 M after 48 hrs by SRB assay; details: UACC-257, 48 h, read-out: Activity
UACC-62 = experiment: Cytotoxicity against human UACC62 cells assessed as cell growth at 10^-5 M after 48 hrs by SRB assay; details: UACC-62, 48 h, read-out: Activity
SK-MEL-2 = experiment: Cytotoxicity against human SK-MEL-2 cells assessed as cell growth at 10^-5 M after 48 hrs by SRB assay; details: SK-MEL-2, 48 h, read-out: Activity
MDA-MB-435 = experiment: Cytotoxicity against human MDA-MB-435 cells assessed as cell growth at 10^-5 M after 48 hrs by SRB assay; details: MDA-MB-435, 48 h, read-out: Activity
Malme-3M = experiment: Cytotoxicity against human MALME-3M cells assessed as cell growth at 10^-5 M after 48 hrs by SRB assay; details: read-out: Activity
LOX IMVI = experiment: Cytotoxicity against human LOXIMVI cells assessed as cell growth at 10^-5 M after 48 hrs by SRB assay; details: read-out: Activity
SNB-19 = experiment: Cytotoxicity against human SNB19 cells assessed as cell growth at 10^-5 M after 48 hrs by SRB assay; details: SNB-19, 48 h, read-out: Activity
SF-295 = experiment: Cytotoxicity against human SF295 cells assessed as cell growth at 10^-5 M after 48 hrs by SRB assay; details: SF-295, 48 h, read-out: Activity
SF-268 = experiment: Cytotoxicity against human SF268 cells assessed as cell growth at 10^-5 M after 48 hrs by SRB assay; details: SF-268, 48 h, read-out: Activity
SW-620 = experiment: Cytotoxicity against human SW620 cells assessed as cell growth at 10^-5 M after 48 hrs by SRB assay; details: SW-620, 48 h, read-out: Activity
KM12 = experiment: Cytotoxicity against human KM12 cells assessed as cell growth at 10^-5 M after 48 hrs by SRB assay; details: KM12, 48 h, read-out: Activity
HT-29 = experiment: Cytotoxicity against human HT-29 cells assessed as cell growth at 10^-5 M after 48 hrs by SRB assay; details: HT-29, 48 h, read-out: Activity
HCC 2998 = experiment: Cytotoxicity against human HCC2998 cells assessed as cell growth at 10^-5 M after 48 hrs by SRB assay; details: HCC 2998, 48 h, read-out: Activity
HCT-116 = experiment: Cytotoxicity against human HCT116 cells assessed as cell growth at 10^-5 M after 48 hrs by SRB assay; details: HCT-116, 48 h, read-out: Activity
COLO 205 = experiment: Cytotoxicity against human COLO205 cells assessed as cell growth at 10^-5 M after 48 hrs by SRB assay; details: COLO 205, 48 h, read-out: Activity
NCI-H522 = experiment: Cytotoxicity against human NCI-H522 cells assessed as cell growth at 10^-5 M after 48 hrs by SRB assay; details: NCI-H522, 48 h, read-out: Activity
NCI-H322M = experiment: Cytotoxicity against human NCI-H322M cells assessed as cell growth at 10^-5 M after 48 hrs by SRB assay; details: read-out: Activity
NCI-H23 = experiment: Cytotoxicity against human NCI-H23 cells assessed as cell growth at 10^-5 M after 48 hrs by SRB assay; details: NCI-H23, 48 h, read-out: Activity
NCI-H226 = experiment: Cytotoxicity against human NCI-H226 cells assessed as cell growth at 10^-5 M after 48 hrs by SRB assay; details: NCI-H226, 48 h, read-out: Activity
HOP-92 = experiment: Cytotoxicity against human HOP92 cells assessed as cell growth at 10^-5 M after 48 hrs by SRB assay; details: HOP-92, 48 h, read-out: Activity
HOP-62 = experiment: Cytotoxicity against human HOP62 cells assessed as cell growth at 10^-5 M after 48 hrs by SRB assay; details: HOP-62, 48 h, read-out: Activity
RPMI-8226 = experiment: Cytotoxicity against human RPMI8226 cells assessed as cell growth at 10^-5 M after 48 hrs by SRB assay; details: RPMI-8226, 48 h, read-out: Activity

Compound C=CCn1c(C)nc2cc(Nc3nc(NCCO)nc4ccccc34)ccc21 has a growth at 10 µM (MDA-MB-468) of 53.5%, a growth at 10 µM (BT-549) of 92.5% and a growth at 10 µM [1] of 77.5%. The growth at 10 µM (MDA-MB-231) was 72.9%, the growth at 10 µM (MCF7) was 72.2% and the growth at 10 µM (DU-145) was 98.8%. For the same compound, the growth at 10 µM (TK-10) was 118%, the growth at 10 µM (RXF 393) was 97.5% and the growth at 10 µM (SN12C) was 84.7%. For the same compound, the growth at 10 µM (ACHN) was 90.5%, the growth at 10 µM (A498) was 55.4% and the growth at 10 µM (786-0) was 89.1%. The growth at 10 µM [2] was 97.7%, the growth at 10 µM (OVCAR-3) was 94.8% and the growth at 10 µM [3] was 65.2%. The growth at 10 µM [4] was 97.7%, the growth at 10 µM (UACC-62) was 85.5% and the growth at 10 µM (SK-MEL-2) was 102%. For the same compound, the growth at 10 µM (MDA-MB-435) was 92.1%, the growth at 10 µM (Malme-3M) was 98.6% and the growth at 10 µM (LOX IMVI) was 85.6%. The growth at 10 µM (SNB-19) was 90.2%, the growth at 10 µM (SF-295) was 90.6% and the growth at 10 µM (SF-268) was 90.9%. It also gave a growth at 10 µM (SW-620) of 68.2%, a growth at 10 µM (KM12) of 73.1% and a growth at 10 µM (HT-29) of 64.5%. It also gave a growth at 10 µM (HCC 2998) of 89%, a growth at 10 µM (HCT-116) of 64% and a growth at 10 µM (COLO 205) of 41.9%. The growth at 10 µM (NCI-H522) was 88.1%, the growth at 10 µM (NCI-H322M) was 91.3% and the growth at 10 µM (NCI-H23) was 81.9%. The growth at 10 µM (NCI-H226) was 78.8%, the growth at 10 µM (HOP-92) was 57.9% and the growth at 10 µM (HOP-62) was 83.3%. The growth at 10 µM (RPMI-8226) was 63.4%.

C=CCn1c(C)nc2ccc(Nc3nc(Nc4ccc5nc(C)n(CC=C)c5c4)c4ccccc4n3)cc21 showed a growth at 10 µM (MDA-MB-468) of -99%, a growth at 10 µM (BT-549) of -86% and a growth at 10 µM [1] of -52%. For the same compound, the growth at 10 µM (MDA-MB-231) was -100%, the growth at 10 µM (MCF7) was -100% and the growth at 10 µM (DU-145) was -98%. It also gave a growth at 10 µM (TK-10) of -97%, a growth at 10 µM (RXF 393) of -93% and a growth at 10 µM (SN12C) of -100%. It also gave a growth at 10 µM (ACHN) of -99%, a growth at 10 µM (A498) of -91% and a growth at 10 µM (786-0) of -93.8%. For the same compound, the growth at 10 µM [2] was -25%, the growth at 10 µM (OVCAR-3) was -99% and the growth at 10 µM [3] was -100%. The growth at 10 µM [4] was -91%, the growth at 10 µM (UACC-62) was -100% and the growth at 10 µM (SK-MEL-2) was -88%. For the same compound, the growth at 10 µM (MDA-MB-435) was -84%, the growth at 10 µM (Malme-3M) was -78.9% and the growth at 10 µM (LOX IMVI) was -91%. It also gave a growth at 10 µM (SNB-19) of -69%, a growth at 10 µM (SF-295) of -80% and a growth at 10 µM (SF-268) of -77%. The growth at 10 µM (SW-620) was -91%, the growth at 10 µM (KM12) was -94% and the growth at 10 µM (HT-29) was -96.7%. It also gave a growth at 10 µM (HCC 2998) of -100%, a growth at 10 µM (HCT-116) of -100% and a growth at 10 µM (COLO 205) of -100%. The growth at 10 µM (NCI-H522) was -94%, the growth at 10 µM (NCI-H322M) was -88% and the growth at 10 µM (NCI-H23) was -89%. The growth at 10 µM (NCI-H226) was -87%, the growth at 10 µM (HOP-92) was -80% and the growth at 10 µM (HOP-62) was -100%. The growth at 10 µM (RPMI-8226) was -43.3%.
